Patent US8436039B2, “Inhibitors of the ATB(0,+) transporter and uses thereof” (Georgia Health Sciences University Research Institute, Inc., priority 2008, dated 2013)

Key:
[1] = tested on: MCF7 cells; assay: Cell cycle analysis (FACS, propidium iodide) in MCF7 cells; assay type: cell-based, human; details: 2.5 mM; 24 hours
Experimental: (§1) MCF10A (an ATB^0,+-negative non-malignant cell line), MCF7 (an ATB^0,+-positive malignant cell line) and MDA-MB453 (an ATB^0,+-negative malignant cell line) cells were cultured in 6-well plates in a regular culture medium in the presence or absence of α-methyl-DL-tryptophan (2.5 mM) for 24, 48 and 72 hours. Cells were fixed in 50% (v/v) ethanol, treated with 0.1% sodium citrate, 1 mg/ml RNase A and 50 μg/ml propidium iodide, and subjected to FACS (Becton Dickinson FACSCalibur™) analysis. The amount of DNA in these cells, detected as chromosome content by propidium iodide binding, was used to identify cells in various stages of cell cycle: G1/G0, 2N; S, 2-4 N; G2/M, 4N (where N is the normal chromosome content).
(§2) Since treatment with α-methyl-DL-tryptophan suppressed colony formation in malignant cell lines in an ATB^0,+-dependent manner, we investigated the influence of this treatment on cell cycle to determine which stage of the cycle is affected. We used three different cell lines in this experiment: MCF10A (non-malignant and ATB^0,+-negative), MCF7 (malignant and ATB^0,+-positive) and MDA-MB453 (malignant and ATB^0,+-negative) (FIG. 9). […] In contrast, the treatment affected the cell cycle progression in the ATB^0,+-positive MCF7 cell line. The cells were arrested at G1/G0 stage to a significant extent when treated with α-methyl-DL-tryptophan. […]

[2] = tested on: HMEC, HBL100 and MCF10A cells; assay: Colony formation assay, non-malignant ATB^0,+-negative mammary epithelial cell lines; assay type: cell-based, human; details: 2.5 mM, 12 days
Experimental: (§3) The colony formation assay was performed as described previously (Thangaraju et al., 2006, Cancer Res. 66, 11560-11564). Mammary epithelial cells were seeded on to 6-well plates (10000 cells per well) in DMEM. After 24 hours, cells were exposed to varying concentrations of α-methyl-DL-tryptophan or 1-methyl-DL-tryptophan for 2 weeks, changing medium every 2 days. Cells were washed with PBS and fixed in 100% (v/v) methanol for 30 min followed by staining with KaryoMAX Giemsa stain for one hour. The wells were washed with water and dried overnight at room temperature. Finally, the dye in the wells was dissolved with 1% SDS in 0.2 M NaOH for one hour, and the attenuance of the released dye was measured at 630 nm.
(§4) The present studies have identified α-methyl-DL-tryptophan as a blocker of ATB^0,+ and also have shown that the compound is able to block the transport of amino acids via ATB^0,+ under conditions that stimulate those in vivo in terms of amino acid concentrations. […] For this, we treated the human mammary epithelial cell lines with 2.5 mM α-methyl-DL-tryptophan in the presence of regular culture medium for 12 days in clonogenic assay and quantified the colony formation for each cell line in the presence and absence of α-methyl-DL-tryptophan (FIG. 8). […]

[3] = tested on: MDA-MB231, MDA-MB361 and MDA-MB453 cell lines; assay: Colony formation assay, malignant ATB^0,+-negative mammary epithelial cell lines; assay type: cell-based, human; details: 2.5 mM, 12 days, no or very low ATB^0,+
Experimental: as §3, §4

[4] = tested on: MCF10A and MDA-MB453 cell lines; assay: Cell cycle analysis (FACS, propidium iodide) in ATB^0,+-negative cell lines; assay type: cell-based, human; details: 2.5 mM; 24, 48 and 72 hours
Experimental: as §1, §2

[5] = tested on: MCF7 cells; assay: Colony formation assay, dose-response in MCF7 cells; assay type: cell-based; details: Homo sapiens, same assay conditions, read-out: IC50 for inhibition of colony formation
Experimental: as §3, §4

[6] = tested on: MCF7, T-47D and ZR-75.1 cells; assay: Colony formation assay, malignant ATB^0,+-positive mammary epithelial cell lines; assay type: cell-based; details: Homo sapiens, 288 h, 2.5 mM, 12 days, regular culture medium
Experimental: as §3, §4

CC(N)(Cc1c[nH]c2ccccc12)C(=O)O (racemic) [α-methyl-DL-tryptophan]
percentage of MCF7 cells in G1/G0-phase [1]: 82±1 percentage
percentage of MCF7 cells in S-phase [1]: 3±1 percentage
effect on ability to form colonies [2]: no effect
effect on colony formation [3]: little or no effect
effect on cell cycle [4]: no effect on cell cycle
IC50 [5]: 160 ± 15 µM
inhibition at 2500 µM [6]: 60 to 75%
